Laboratory results published in patent publication US20230091810A1, “FIRST-IN-CLASS OF SHMT2 AND MTHFD2 INHIBITORS AS ANTITUMOR AGENTS” (Duquesne University of the Holy Spirit, priority 2017, published 2023).

Key:
AICARFTase = AICARFTase (Homo sapiens, UniProt P31939); assay: in vitro inhibition of purified AICARFTase (ATIC)
R2/PCFT4 (CHO) = assay: proliferation assay, R2/PCFT4 CHO cells expressing PCFT only; assay type: cell-based, Chinese hamster; conditions: Cricetulus griseus, folate-/glycine-free RPMI1640 with 25 nM leucovorin, 96 h, drug 0-1000 nM, read-out: IC50s (SE) R2/PCFT4 (CHO)
R2 (null) (CHO) = assay: proliferation assay, R2 transporter-null CHO cells; assay type: cell-based, Chinese hamster; conditions: Cricetulus griseus, folate-/glycine-free RPMI1640 with 25 nM leucovorin, 96 h, drug 0-1000 nM, read-out: IC50s (SE) R2 (null) (CHO)
Protocol: Proliferation assays were performed with engineered Chinese hamster ovary (CHO) cell lines R2 (transporter-null), PC43-10 (expresses RFC only), RT16 (FRα only), and R2/PCFT4 (PCFT only) cultured in folate-/glycine-free RPMI1640 supplemented with 25 nM leucovorin. Additional results are shown for HCT116 (colon tumor cells (CTC)), IGROV1 (epithelial ovarian cancer (EOC) cells), H460 (non-small cell lung cancer (NSCLC) cells), MIAPaCa-2 (pancreatic cancer (PaC) cells), and HPAC (PaC).
Cell culture and proliferation/protection assays. […]
For proliferation assays with the CHO cell lines, the cells were treated with drugs (0-1 µM) in a 96-well plate (2000 cells/well) in glycine-free, nucleoside-free folate-free RPMI supplemented with 10% dialyzed fetal bovine serum, 1% penicillin/streptomycin, 2 mM L-glutamine, and 25 nM leucovorin (final volume 200 µL) over a 96 h incubation period at 37° C. with 5% CO2. […] To quantify viable cells, the media was removed and plates were washed once with 100 µL Dulbecco’s Phosphate-Buffered Saline (PBS), after which 100 µL PBS and 20 µL Cell Titer-blue (Promega) were added. Relative cell numbers were proportional to the fluorescence measured with a fluorescence plate reader (590 nm emission, 560 nm excitation). […]

AICARFTase, sequence (P31939 whole entry): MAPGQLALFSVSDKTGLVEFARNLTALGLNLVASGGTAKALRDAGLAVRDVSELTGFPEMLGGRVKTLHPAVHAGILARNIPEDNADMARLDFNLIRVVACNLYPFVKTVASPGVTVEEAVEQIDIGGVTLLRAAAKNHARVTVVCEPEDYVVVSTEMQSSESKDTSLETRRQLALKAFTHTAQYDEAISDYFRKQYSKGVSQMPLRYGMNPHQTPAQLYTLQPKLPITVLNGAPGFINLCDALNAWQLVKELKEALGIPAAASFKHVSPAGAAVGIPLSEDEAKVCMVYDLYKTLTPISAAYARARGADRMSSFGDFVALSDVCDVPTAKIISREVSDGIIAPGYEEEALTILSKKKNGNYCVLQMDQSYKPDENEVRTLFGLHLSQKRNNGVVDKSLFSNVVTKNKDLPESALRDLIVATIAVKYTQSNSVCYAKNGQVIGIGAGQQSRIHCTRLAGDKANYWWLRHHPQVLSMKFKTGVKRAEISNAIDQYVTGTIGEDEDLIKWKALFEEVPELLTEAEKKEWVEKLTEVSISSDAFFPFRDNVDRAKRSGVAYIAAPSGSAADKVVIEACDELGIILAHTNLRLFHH

Ki (AICARFTase): 10900 ± 6070 nM
Structure (SMILES): Nc1nc2ccn(CCCc3ccc(C(=O)N[C@@H](CCC(=O)O)C(=O)O)cc3)c2c(=O)[nH]1 [AGF291]
IC50 (R2/PCFT4 (CHO)): 282 nM
IC50 (R2 (null) (CHO)): > 1000 nM
